For experiment [1], the target named is T1, human myelin P2 protein (untagged) (Homo sapiens, UniProt P02689).
T1 construct: gene PMP2
The experiment is described as follows: X-ray crystallography, […] Å. The settings on record: fatty acid carried over from E. coli, identity modelled from electron density; inside barrel cavity; pH 8.5. It counts as binding.

Experiment [2] deals with T2, His-tagged P2 protein (His-P2) (Homo sapiens, UniProt P02689).
T2 construct: gene PMP2; full length, N-terminal His6 tag with TEV site kept (pTH27), E. coli Rosetta(DE3)
The experiment can be described thus: intrinsic Trp fluorescence quenching. It counts as binding. The settings on record: 9.4 µM protein, 10 µM cholesterol, 1% ethanol, HEPES, 150 mM NaCl, pH 7.5, 120 min, room temperature, excitation 280 nm.

On to `CCCCCCCCCCCCCCCC(=O)O` [palmitate], for which the “X-ray crystallography, 1.85 Å” value in experiment [1] was “a palmitate molecule, well-defined in the electron density (Figure 2B,4A), was modeled into the lipid-binding cavity”.

On to `CC(C)CCC[C@@H](C)[C@H]1CC[C@H]2[C@@H]3CC=C4C[C@@H](O)CC[C@]4(C)[C@H]3CC[C@]12C` [cholesterol], for which the “decrease of fluorescence intensity” value in experiment [2] is listed as ~ 25%.
